Measured values taken from patent US8076341B2, “Compounds and use thereof” (Vironova AB, priority 2007, dated 2011).

How the values were obtained:
HCMV = assay: Test of inhibition of HCMV assembly and egress (modified plaque assay, 3 and 5 dpi); format: cell-based, human cytomegalovirus; details: left until 7 dpi, infected human lung fibroblast cells, IE staining; for Inhibition 3 dpi (%): agent added 3 dpi; for Inhibition 5 dpi (%): agent added 5 dpi
[1] = test system: human cytomegalovirus (HCMV) strain AD169 and TB 40; format: cell-based; details: human lung fibroblasts, IE staining
[2] = test system: infected and uninfected human lung fibroblasts; assay: Toxicity by propidium iodide staining of cell cultures; format: cell-based; details: method and source not stated
Method: The concentrations of compounds used in the viral experiments were at the μM level. Cellular toxicity for B-220 has been shown for concentrations above 100 μM.

**Q.** `Cc1cc2nc3c4ccccc4n(CCN(C)C)c3nc2cc1C` [B-220, 2,3-dimethyl-6-(N,N-dimethylaminoethyl)-6H-indolo(2,3-b)quinoxaline] was tested. Which “Inhibition 3 dpi (%)” value (HCMV) did it give?
**A.** 65-85%

**Q.** And the “Inhibition 5 dpi (%)” value (HCMV)?
**A.** 65-80%

**Q.** And the “Inhibitory effect (%) as % inhibition of infection” value (“Inhibitory effect (%)” for short) [1]?
**A.** 20%

**Q.** What about the “concentrations at which cellular toxicity has been shown” value [2] of the same compound?
**A.** above 100 μM

**Q.** `O=C(O)P(=O)(O)O` [Foscavir] was tested. Which “Inhibition 3 dpi (%)” value (HCMV) did it give?
**A.** 85-100%

**Q.** And the “Inhibition 5 dpi (%)” value (HCMV)?
**A.** 65-85%

**Q.** And the “Inhibitory effect (%)” value [1]?
**A.** 20-50%

**Q.** What does the source list for `Nc1nc(O)c2ncn(COC(CO)CO)c2n1` [Ganciclovir]?
**A.** Inhibition 3 dpi (%) (HCMV): 100%; Inhibition 5 dpi (%) (HCMV): 80-95%; Inhibitory effect (%) as % inhibition of infection [1]: 20-30%

**Q.** Which “Inhibition 3 dpi (%)” value (HCMV) does the source give for `Cc1oncc1C(=O)Nc1ccc(C(F)(F)F)cc1` [Leflunomide] here?
**A.** 65-80%

**Q.** And the “Inhibition 5 dpi (%)” value (HCMV)?
**A.** 80-90%

**Q.** And the “Inhibitory effect (%)” value [1]?
**A.** 25-50%
